Counter-ions that a name gives are not always drawn.
Tests used:
Format in all cases: biochemical
recombinant human VAP-1 = target: T1, recombinant human VAP-1 (Homo sapiens, UniProt Q16853); assay: Activity on recombinant human VAP-1, HRP-coupled Amplex Red hydrogen peroxide assay; details: substrate 1 mM benzylamine; compound incubated with enzyme at 37° C. for 30 minutes; pH 7.4; read-out: Inhibitory Activity (IC50, nM) human VAP-1
T1 construct: purchased R&D systems
T1 sequence (Q16853 1-763): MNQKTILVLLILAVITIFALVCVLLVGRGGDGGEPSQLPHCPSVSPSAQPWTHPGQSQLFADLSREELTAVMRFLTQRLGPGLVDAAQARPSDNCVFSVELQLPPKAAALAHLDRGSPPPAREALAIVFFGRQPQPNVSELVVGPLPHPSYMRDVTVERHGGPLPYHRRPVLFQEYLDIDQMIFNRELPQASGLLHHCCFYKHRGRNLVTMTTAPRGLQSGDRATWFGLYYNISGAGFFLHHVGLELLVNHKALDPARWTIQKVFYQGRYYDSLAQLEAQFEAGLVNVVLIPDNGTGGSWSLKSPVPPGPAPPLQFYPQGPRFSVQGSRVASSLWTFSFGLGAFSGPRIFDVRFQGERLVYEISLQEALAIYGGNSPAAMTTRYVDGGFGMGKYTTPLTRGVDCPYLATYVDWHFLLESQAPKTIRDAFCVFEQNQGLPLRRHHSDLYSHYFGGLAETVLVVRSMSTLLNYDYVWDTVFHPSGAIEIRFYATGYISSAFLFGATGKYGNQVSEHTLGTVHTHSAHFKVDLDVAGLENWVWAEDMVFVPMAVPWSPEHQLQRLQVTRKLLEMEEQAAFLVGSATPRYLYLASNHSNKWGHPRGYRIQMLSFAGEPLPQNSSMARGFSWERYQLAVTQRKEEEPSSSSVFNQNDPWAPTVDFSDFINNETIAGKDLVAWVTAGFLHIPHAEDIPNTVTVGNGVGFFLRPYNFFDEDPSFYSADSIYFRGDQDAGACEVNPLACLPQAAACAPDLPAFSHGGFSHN
Procedure, shortened: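 H2O2 generation from 1 mM benzylamine was coupled via 1 U/mL HRP to 200 uM Amplex Red; inhibitors, serially diluted 1:3 over 8 points with under 1% final DMSO, had been preincubated 30 min at 37 °C. IC50 from percentage drop in rate.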

[1] = target: T2, recombinant human MAO-B (monoamine oxidase-B) (Homo sapiens, UniProt P27338); assay: Activity on recombinant human MAO-B, method similar to the VAP-1 assay; details: substrate 1 mM benzylamine; read-out: Inhibitory Activity (IC50, nM) MAO-B
T2 construct: purchased Sigma-Aldrich
T2 sequence (P27338 1-520): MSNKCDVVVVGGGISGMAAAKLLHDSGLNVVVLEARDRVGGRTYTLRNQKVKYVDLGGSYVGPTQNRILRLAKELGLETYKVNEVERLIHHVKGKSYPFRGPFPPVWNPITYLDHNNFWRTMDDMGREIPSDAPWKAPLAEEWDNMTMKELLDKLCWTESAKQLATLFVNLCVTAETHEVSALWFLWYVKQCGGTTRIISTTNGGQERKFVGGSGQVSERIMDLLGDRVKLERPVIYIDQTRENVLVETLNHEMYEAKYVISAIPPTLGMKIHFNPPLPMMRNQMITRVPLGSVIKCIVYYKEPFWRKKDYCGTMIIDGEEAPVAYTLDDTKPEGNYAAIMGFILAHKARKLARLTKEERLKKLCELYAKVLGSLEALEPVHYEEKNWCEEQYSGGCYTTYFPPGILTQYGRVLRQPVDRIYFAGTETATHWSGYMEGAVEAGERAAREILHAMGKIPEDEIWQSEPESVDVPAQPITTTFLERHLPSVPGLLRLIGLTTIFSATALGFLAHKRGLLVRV
Procedure, shortened: (§1)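 First, serially diluted compounds were incubated with recombinant enzyme in 50 mM sodium phosphate, pH 7.4, for 30 min at 37° C. Next, Amplex Red (200 uM), HRP (1 U/mL) and tyramine (0.5 mM, MAO-A) or benzylamine (1 mM, MAO-B) were added. Then fluorescence was monitored over 1-2 h and IC50 fitted.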

[2] = target: T3, recombinant human DAO (diamine oxidase) (Homo sapiens, UniProt P19801); assay: Activity on recombinant human DAO, method similar to the VAP-1 assay; details: substrate 1 mM putrescine; read-out: Inhibitory Activity (IC50, nM) DAO
T3 construct: purchased R&D systems
T3 sequence (P19801 20-751): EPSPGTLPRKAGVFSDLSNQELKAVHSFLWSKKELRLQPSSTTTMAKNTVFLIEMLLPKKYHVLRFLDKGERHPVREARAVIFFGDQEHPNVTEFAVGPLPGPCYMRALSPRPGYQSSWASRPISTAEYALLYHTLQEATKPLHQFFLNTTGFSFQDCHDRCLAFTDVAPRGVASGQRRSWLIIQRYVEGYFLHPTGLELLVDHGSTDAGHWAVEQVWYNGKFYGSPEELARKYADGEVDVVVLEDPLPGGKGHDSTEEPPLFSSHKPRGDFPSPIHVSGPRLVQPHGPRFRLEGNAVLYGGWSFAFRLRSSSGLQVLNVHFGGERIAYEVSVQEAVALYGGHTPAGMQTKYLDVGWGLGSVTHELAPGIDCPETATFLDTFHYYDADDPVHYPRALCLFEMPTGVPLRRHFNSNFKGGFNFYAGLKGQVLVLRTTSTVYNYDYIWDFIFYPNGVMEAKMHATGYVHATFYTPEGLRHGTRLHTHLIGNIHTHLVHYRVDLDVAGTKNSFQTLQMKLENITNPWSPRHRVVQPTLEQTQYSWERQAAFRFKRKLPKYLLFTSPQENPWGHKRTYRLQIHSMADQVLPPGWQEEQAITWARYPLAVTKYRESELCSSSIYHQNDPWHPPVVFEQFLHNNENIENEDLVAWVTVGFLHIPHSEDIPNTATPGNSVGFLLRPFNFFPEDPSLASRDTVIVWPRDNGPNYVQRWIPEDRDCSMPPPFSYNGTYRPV
Procedure, shortened: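 Inhibition of recombinant human diamine oxidase (DAO, R&D systems) was assessed by the same approach as the VAP-1 assay, using 1 mM putrescine as substrate. Hydrogen peroxide formed was detected through an HRP-coupled Amplex Red reaction yielding fluorescent resorufin, read at 544 nm excitation and 590 nm emission. IC50 values came from four-parameter logistic fitting in GraphPad Prism.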

[3] = target: T4, recombinant human MAO-A (monoamine oxidase-A) (Homo sapiens, UniProt P21397); assay: Activity on recombinant human MAO-A, method similar to the VAP-1 assay; details: substrate 0.5 mM tyramine; read-out: Inhibitory Activity (IC50, nM) MAO-A
T4 construct: purchased Sigma-Aldrich
T4 sequence (P21397 1-527): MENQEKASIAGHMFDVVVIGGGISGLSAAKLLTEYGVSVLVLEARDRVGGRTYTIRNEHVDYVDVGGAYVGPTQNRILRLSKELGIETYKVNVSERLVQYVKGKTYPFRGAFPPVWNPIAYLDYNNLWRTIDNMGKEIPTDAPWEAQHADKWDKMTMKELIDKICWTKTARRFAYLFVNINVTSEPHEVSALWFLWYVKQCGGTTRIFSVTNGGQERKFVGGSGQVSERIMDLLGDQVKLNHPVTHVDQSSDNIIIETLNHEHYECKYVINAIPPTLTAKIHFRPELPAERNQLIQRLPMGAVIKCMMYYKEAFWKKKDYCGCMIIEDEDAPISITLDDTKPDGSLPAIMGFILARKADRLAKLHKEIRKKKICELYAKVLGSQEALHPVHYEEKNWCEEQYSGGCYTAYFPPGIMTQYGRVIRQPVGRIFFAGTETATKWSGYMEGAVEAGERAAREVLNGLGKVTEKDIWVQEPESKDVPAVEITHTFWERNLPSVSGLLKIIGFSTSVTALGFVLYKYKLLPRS
Procedure, shortened: as §1

IC50 (recombinant human VAP-1) [nM] | IC50 [1] [nM] | IC50 [2] [nM] | IC50 [3] [nM] | Compound
4.1 | > 10000 | 110 | > 100000 | CC(C)(C)NS(=O)(=O)c1cncc(-c2ccc(Cn3cnn(C/C(=C/F)CN)c3=O)s2)c1 [Example 43, 5-[5-(1-[(2E)-2-(aminomethyl)-3-fluoroprop-2-en-1-yl]-5-oxo-1,5-dihydro-4H-1,2,4-triazol-4-ylmethyl)thiophen-2-yl]-N-tert-butylpyridin-3-sulfonamide hydrochloride]
1.1 | 400 | 330 | > 100000 | COc1ccc(-c2ccc(Cn3cnn(C/C(=C/F)CN)c3=O)s2)cn1 [Example 45, 2-[(2E)-2-(aminomethyl)-3-fluoroprop-2-en-1-yl]-4-[5-(6-methoxypyridin-3-yl)thiophen-2-yl]methyl-2,4-dihydro-3H-1,2,4-triazol-3-one hydrochloride]
1.3 | 740 | 380 | > 10000 | CSc1ccc(-c2ccc(Cn3cnn(C/C(=C/F)CN)c3=O)s2)cn1 [Example 46, 2-[(2E)-2-(aminomethyl)-3-fluoroprop-2-en-1-yl]-4-(5-[6-(methylsulfanyl)pyridin-3-yl]thiophen-2-ylmethyl)-2,4-dihydro-3H-1,2,4-triazol-3-one hydrochloride]
4.7 | 980 | 530 | > 100000 | NC/C(=C\F)Cn1ncn(Cc2ccc(-c3ccc(OCC(F)(F)F)nc3)s2)c1=O [Example 47, 2-[(2E)-2-(aminomethyl)-3-fluoroprop-2-en-1-yl]-4-(5-[6-(2,2,2-trifluoroethoxy)pyridin-3-yl]thiophen-2-ylmethyl)-2,4-dihydro-3H-1,2,4-triazol-3-one hydrochloride]
0.5 | 360 | 98 | > 100000 | NC/C(=C\F)Cn1ncn(Cc2ccc(-c3ccc(C(F)(F)F)nc3)s2)c1=O [Example 49, 2-[(2E)-2-(aminomethyl)-3-fluoroprop-2-en-1-yl]-4-(5-[6-(trifluoromethyl)pyridin-3-yl]thiophen-2-ylmethyl)-2,4-dihydro-3H-1,2,4-triazol-3-one hydrochloride]
0.5 | 3700 | 360 | > 100000 | N#Cc1ccc(-c2ccc(Cn3cnn(C/C(=C/F)CN)c3=O)s2)cn1 [Example 50, 5-[5-(1-[(2E)-2-(aminomethyl)-3-fluoroprop-2-en-1-yl]-5-oxo-1,5-dihydro-4H-1,2,4-triazol-4-ylmethyl)thiophen-2-yl]pyridine-2-carbonitrile hydrochloride]
0.8 | 640 | 170 | > 100000 | NC/C(=C\F)Cn1ncn(Cc2ccc(-c3ccc(N4CCCCC4)nc3)s2)c1=O [Example 52, 2-[(2E)-2-(aminomethyl)-3-fluoroprop-2-en-1-yl]-4-(5-[6-(piperidin-1-yl)pyridin-3-yl]thiophen-2-ylmethyl)-2,4-dihydro-3H-1,2,4-triazol-3-one hydrochloride]
0.5 | 6400 | 180 | > 100000 | CN(C)c1ncc(-c2ccc(Cn3cnn(C/C(=C/F)CN)c3=O)s2)cn1 [Example 55, 2-[(2E)-2-(aminomethyl)-3-fluoroprop-2-en-1-yl]-4-(5-[2-(dimethylamino)pyrimidin-5-yl]thiophen-2-ylmethyl)-2,4-dihydro-3H-1,2,4-triazol-3-one hydrochloride]
0.4 | 4200 | 40 | > 100000 | CSc1ncc(-c2ccc(Cn3cnn(C/C(=C/F)CN)c3=O)s2)cn1 [Example 56, 2-[(2E)-2-(aminomethyl)-3-fluoroprop-2-en-1-yl]-4-(5-[2-(methylsulfanyl)pyrimidin-5-yl]thiophen-2-ylmethyl)-2,4-dihydro-3H-1,2,4-triazol-3-one hydrochloride]
2.2 | 1600 | 83 | 6600 | NC/C(=C\F)Cn1ncn(Cc2ccc(-c3cnc(N4CCOCC4)nc3)s2)c1=O [Example 57, 2-[(2E)-2-(aminomethyl)-3-fluoroprop-2-en-1-yl]-4-(5-[2-(morpholin-4-yl)pyrimidin-5-yl]thiophen-2-ylmethyl)-2,4-dihydro-3H-1,2,4-triazol-3-one hydrochloride]
3.9 | > 10000 | 780 | > 100000 | CN1CC=C(c2ccc(Cn3cnn(C/C(=C/F)CN)c3=O)s2)CC1 [Example 58, 2-[(2E)-2-(aminomethyl)-3-fluoroprop-2-en-1-yl]-4-[5-(1-methyl-1,2,3,6-tetrahydropyridin-4-yl)thiophen-2-yl]methyl-2,4-dihydro-3H-1,2,4-triazol-3-one hydrochloride]
0.5 | 990 | 1300 | > 100000 | CC(=O)N1CC=C(c2ccc(Cn3cnn(C/C(=C/F)CN)c3=O)s2)CC1 [Example 59, 4-[[5-(1-acetyl-3,6-dihydro-2H-pyridin-4-yl)-2-thienyl]methyl]-2-[(E)-2-(aminomethyl)-3-fluoro-allyl]-1,2,4-triazol-3-one]
